The values that follow come from patent US20140322250A1, “Peptides for the Treatment of Multiple Sclerosis and Related Diseases” (priority 2013, published 2014).

Where no end group is shown, it is not given here. [ ]: non-standard residue; d: D form.

Data set [1] can be described thus: Pharmacokinetic study, plasma concentration by LC-MS/MS. The data set is classed as in vivo, male Sprague Dawley rat. As to the method: A pharmacokinetic study of all-D-TTNYT (SEQ ID NO:2) (RAP-103) following intravenous and oral administration was conducted at a target dose level of 1 mg/kg in the male Sprague Dawley rat. The concentration of RAP-103 in each plasma and brain sample was measured using a suitable LC-MS/MS assay. The assay used was a research grade assay (RGA-1) which was established by assessing the accuracy, precision and the linearity of the method. Plasma concentrations generated were used to evaluate the pharmacokinetic parameters of all-D-TTNYT (SEQ ID NO:2) (RAP-103).
The dose formulation was administered intravenously to some animals as a slow bolus over ca 30 s via the tail vein and to a different group of animals orally via gastric gavage at a target dose volume of 1 mL/kg, to achieve a target dose level of 1 mg/kg. The dose volume administered was calculated according to the bodyweight of the animal on the day of dosing. The weight of administered dose was recorded. […] Results expressed as ng/mL

For data set [2] the following is noted: 6.0 mg daily intranasal.
Procedure: Their neurological examination confirmed increased deep tendon reflexes, spasticity of the lower limbs and pyramidal weakness of the legs. Therapy, consisting of 6.0 mg of Peptide T daily, was self-administered via 4 metered intranasal sprays, delivered three times daily.
A further data set deals with CCR2 (Homo sapiens, UniProt P41597). The data set is classed as cell-based. The conditions noted are these: for inhibition of CCR2 (MCP-1) elicited chemotaxis: FIG. 4, 20 pM peptide 30 minutes prior, MCP-1 0.6 nM for 2 hours; for blocking CCL2 (MCP-1) chemotaxis: FIG. 3, tested at 10^−14 M. The source says: Triplicate determinations were made and results are expressed as the mean plus or minus SEM. The experiment shown is a direct comparison among all RAPs. Statistical analysis was by unpaired t-test, with significance set at the p<0.01 (*) level for difference from CCL2 only chemotaxis.
Sequence of CCR2 (P41597 whole entry): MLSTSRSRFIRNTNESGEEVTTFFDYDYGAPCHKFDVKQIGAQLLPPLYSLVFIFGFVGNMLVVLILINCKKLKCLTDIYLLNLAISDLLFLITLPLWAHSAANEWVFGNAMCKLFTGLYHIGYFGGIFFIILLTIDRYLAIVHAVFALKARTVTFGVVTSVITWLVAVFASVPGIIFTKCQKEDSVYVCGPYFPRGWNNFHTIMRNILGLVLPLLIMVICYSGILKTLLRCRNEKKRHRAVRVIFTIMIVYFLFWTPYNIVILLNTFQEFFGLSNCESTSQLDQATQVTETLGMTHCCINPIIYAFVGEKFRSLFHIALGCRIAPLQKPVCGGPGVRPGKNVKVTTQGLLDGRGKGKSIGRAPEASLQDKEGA
Data are the average of 2 separate experiments, conducted with triplicate determinations. Data (chemotactic index) are presented as mean±SEM. The IC50 for inhibition of MCP-1 or MIP-1β was generated by a nonlinear inhibition curve fit in GraphPad Prism software, version 5.0. […] Data are presented as mean±SEM. *P<0.05, **P<0.01 vs RAP-103 untreated.
Triplicate determinations were performed and results are expressed as the mean plus or minus SEM. The experiment shown is a direct comparison among all RAPs. Statistical analysis was by unpaired t-test, with significance set at the p<0.01 (*) level for difference from CCL2 only chemotaxis.
A representative experiment is shown comprising triplicate determinations and is presented as relative fluorescence units, Mean±SEM.

Data set [3] has as its system β-Integrin-mediated adhesion to human fibronectin. Briefly: MCP-1 elicited adhesion of human monocytes to human fibronectin. The data set is classed as cell-based. The conditions noted are these: FIG. 5, 10 minutes pretreatment. As to the method: Human monocytes were treated with the indicated doses of all-D-(IDNYT) for 10 minutes prior to adherence to the β-integrin human fibronectin. Data is the average of two separate experiments, conducted with triplicate determinations. Data are presented as Mean±SEM of the normalized adherence response from two experiments. The IC50 for inhibition of MCP-1 stimulated adherence was generated using a nonlinear inhibition curve fit in GraphPad Prism Version 5.0.

The subject of a further data set is response to bradykinin. The note with it: amounts up to 50,000 times the standard challenge of bradykinin; Stewart and Woolley 1965; cited from earlier work.
The target in data set [4] is TLR4 on human monocyte-derived immature dendritic cells (human, UniProt O00206 24-839). Briefly: cell-based or functional assay.
Sequence of TLR4 on human monocyte-derived immature dendritic cells (O00206 24-839): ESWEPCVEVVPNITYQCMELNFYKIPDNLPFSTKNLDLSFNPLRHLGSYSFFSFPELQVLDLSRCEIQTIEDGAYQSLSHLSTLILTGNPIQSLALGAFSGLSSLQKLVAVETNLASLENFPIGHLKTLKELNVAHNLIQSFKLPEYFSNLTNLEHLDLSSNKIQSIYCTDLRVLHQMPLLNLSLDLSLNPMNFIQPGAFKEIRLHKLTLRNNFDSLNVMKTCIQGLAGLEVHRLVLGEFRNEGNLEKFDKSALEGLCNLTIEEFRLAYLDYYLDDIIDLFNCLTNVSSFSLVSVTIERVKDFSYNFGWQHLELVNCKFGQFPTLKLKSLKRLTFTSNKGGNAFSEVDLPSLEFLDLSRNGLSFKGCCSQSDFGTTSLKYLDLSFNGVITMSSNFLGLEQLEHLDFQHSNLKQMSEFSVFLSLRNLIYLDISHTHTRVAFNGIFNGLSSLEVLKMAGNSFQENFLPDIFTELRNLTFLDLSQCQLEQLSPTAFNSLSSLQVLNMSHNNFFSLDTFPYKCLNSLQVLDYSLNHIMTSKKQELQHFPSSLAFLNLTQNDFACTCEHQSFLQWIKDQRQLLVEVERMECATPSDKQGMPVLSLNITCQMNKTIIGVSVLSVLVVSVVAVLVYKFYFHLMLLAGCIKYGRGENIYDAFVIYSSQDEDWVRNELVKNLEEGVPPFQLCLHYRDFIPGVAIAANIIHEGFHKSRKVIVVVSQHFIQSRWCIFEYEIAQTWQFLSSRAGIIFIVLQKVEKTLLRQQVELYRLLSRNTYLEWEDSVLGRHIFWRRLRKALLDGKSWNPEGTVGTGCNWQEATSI

On to `C[C@H](O)[C@@H](N)C(=O)N[C@@H](C(=O)N[C@H](CC(N)=O)C(=O)N[C@H](Cc1ccc(O)cc1)C(=O)N[C@@H](C(=O)O)[C@H](C)O)[C@H](C)O` [RAP-103, all-D-TTNYT], for which, in data set [1] (1 mg/kg, rat), the “time of peak levels in plasma” value lay in the range of 10 to 15 min. The concentration in plasma in data set [1] (intravenous 1 mg/kg, 0.5 h, individual animals) was 561 ng/mL. In data set [1] (intravenous and oral gavage, 1 mg/kg, rat), the “tolerability of dose administrations” value was “well tolerated”. This molecule also yielded a level at 0.083 h in data set [1] (male, Sprague Dawley, rat, plasma, iv, 1 mg/kg, intravenous 1 mg/kg, 0.083 h, individual animals) of 3050 ng/mL. In data set [1] (male, Sprague Dawley, rat, plasma, iv, 1 mg/kg, intravenous 1 mg/kg, 0.167 h, individual animals), the level at 0.167 h stood at 2400 ng/mL. The level at 0.25 h in data set [1] (male, Sprague Dawley, rat, plasma, iv, 1 mg/kg, intravenous 1 mg/kg, 0.25 h, individual animals) was determined as 2050 ng/mL. Further, the level at 0.5 h in data set [1] (male, Sprague Dawley, rat, plasma, iv, 1 mg/kg, intravenous 1 mg/kg, 0.5 h, individual animals) was 558 ng/mL. Further, the level at 1 h in data set [1] (male, Sprague Dawley, rat, plasma, iv, 1 mg/kg, intravenous 1 mg/kg, 1 h, individual animals) turned out to be 405 ng/mL.

Consider ASTTTNYY [Peptide T], for which, in data set [2] (after 2 weeks, continued to end of week 10), the patient-reported change entry is listed as “definite improvements”. For the same molecule, the “time to walk 10 meters” value in data set [2] (end of week 10, 65 seconds initially, one patient) is 15 s.

As to Asn-Thr-Arg-Tyr-Arg [NYRYR], the “inhibition of CCR2 (MCP-1) elicited chemotaxis” value (“inhibition of CCR2” below) at CCR2 is given as “potently block”.

Regarding “Asn-Thr-Ser-Tyr-Arg ([dN][dT][dS][dY][dR]) [NTSYR]”, in the data set with CCR2, the “blocking CCL2 (MCP-1) chemotaxis” value is “retain potency”.

As for “Asn-Thr-Ser-Tyr-Gly ([dN][dT][dS][dY]G) [NTSYG]”, the “inhibition of CCR2” value with CCR2 was “potently block”.

For “Glu-Thr-Trp-Tyr-Ser ([dE][dT][dW][dY][dS]) [ETWYS]”, the “inhibition of CCR2” value with CCR2 is “potently block”.

As to “Ile-Asn-Asn-Tyr-Thr ([dI][dN][dN][dY][dT]) [IDNYT (SEQ ID NO:8)]”, the “inhibition of CCR2” value with CCR2 is given as “potently block”.

On to “Ile-Asp-Asn-Tyr Thr ([dI][dD][dN][dY][dT]) [IDNYT (SEQ ID NO:6)]”, for which the “inhibition of CCR2” value with CCR2 is “potently block”. Also, in data set [3], the “blocking of MCP-1 elicited adhesion” value is given as “potently blocking”.

For “Ser-Ser-Thr-Tyr-Arg ([dS][dS][dT][dY][dR]) [SSTYR]”, in the data set with CCR2, the “blocking CCL2 (MCP-1) chemotaxis” value is “retain potency”.

For the molecule “Thr-Thr-Ser-Tyr-Thr ([dT][dT][dS][dY][dT]) [TTSYT]”, the “blocking CCL2 (MCP-1) chemotaxis” value with CCR2 is given as “retain potency”.

Consider all-D-bradykinin, for which the “inhibition of the response to bradykinin or bradykinin-like effect” value in the data set on response to bradykinin was “neither any inhibition of the response to bradykinin, or any bradykinin-like effect”.

For [dT][dT][dN][dY][dT] [all-D-TTNYT (RAP-103)], in data set [4], the “IC50 for inhibition of LPS (100 ng/mL) induced TNFα production in human monocyte-derived iDC (FIG. 6)” value is about 0.1 pM.
